In paper PMC7363834, “A STING-based biosensor affords broad cyclic dinucleotide detection within single living eukaryotic cells” (Nature Communications, 2020):

Columns and labels:
[1] = biological target: T1, BioSTING (Mus musculus, UniProt Q3TBT3); test: DRaCALA radioactive nucleotide binding assay of BioSTING; design: species or system murine; conditions: excess (500 µM) unlabeled nucleotide
T1 construct: FRET pair mTFP and mKO2 at L152 and E335, respectively; His tag (N); made in house; host or cells: E. coli Rosetta (DE3)pLysS
T1 sequence (Q3TBT3 152-335): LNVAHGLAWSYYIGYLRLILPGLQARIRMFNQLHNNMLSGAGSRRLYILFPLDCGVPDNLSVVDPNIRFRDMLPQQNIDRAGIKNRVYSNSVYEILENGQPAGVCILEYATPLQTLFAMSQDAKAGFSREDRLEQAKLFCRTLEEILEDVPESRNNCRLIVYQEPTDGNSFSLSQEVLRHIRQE

[2] = biological target: T2, STING-CTD (mSTING-CTD) (Mus musculus, UniProt Q3TBT3); test: DRaCALA radioactive nucleotide binding assay of STING-CTD; design: species or system murine; conditions: excess (500 µM) unlabeled nucleotide
T2 construct: made in house; host or cells: E. coli Rosetta (DE3)pLysS; plasmid pET28-mSTING-CTD, gift from Russell Vance
T2 sequence (Q3TBT3 134-378 limits assumed): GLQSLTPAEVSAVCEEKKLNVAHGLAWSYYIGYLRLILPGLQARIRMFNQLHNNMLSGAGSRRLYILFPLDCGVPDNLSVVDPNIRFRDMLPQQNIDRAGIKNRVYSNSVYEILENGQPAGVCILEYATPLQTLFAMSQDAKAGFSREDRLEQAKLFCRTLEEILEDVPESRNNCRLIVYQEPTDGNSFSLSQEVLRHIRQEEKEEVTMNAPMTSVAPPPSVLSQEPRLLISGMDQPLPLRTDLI

| Compound | competition of bound [32P] 2ʼ3ʼ-cGAMP by unlabeled nucleotide [1] | competition of bound [32P] 2ʼ3ʼ-cGAMP by unlabeled nucleotide [2] |
| --- | --- | --- |
| Nc1nc2c(ncn2[C@@H]2O[C@H](COP(=O)(O)OP(=O)(O)OP(=O)(O)O)[C@@H](O)[C@H]2O)c(=O)[nH]1 [GTP] | not | not |
| Nc1ncnc2c1ncn2[C@@H]1O[C@H](COP(=O)(O)OP(=O)(O)OP(=O)(O)O)[C@@H](O)[C@H]1O [ATP] | not | not |
| Nc1nc2c(ncn2[C@@H]2O[C@@H]3COP(=O)(O)O[C@H]3[C@H]2O)c(=O)[nH]1 [cGMP] | not | not |
